Results published in US7713994B2 (Wyeth LLC, priority 2005, dated 2010).
Where two headings read alike, the source gives them in different places.

Columns and labels:
cyclin D1/cdk 4 enzyme = biological target: T1, cyclin D1/cdk 4 enzyme (Homo sapiens, UniProt P11802); experiment: CDK4 ELISA kinase assay (phospho-Rb ser 795 detection); assay type: biochemical
T1 construct: made in house; host or cells: Sf9 insect cells, recombinant baculovirus
Outline: (§1)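 Screening was done at 10 ug/ml compound. Each partially purified cyclin/CDK complex, produced in baculovirus-infected Sf9 cells, phosphorylated a coated GST-Rb C-terminal fragment with 200 μM ATP, and Ser795 phosphorylation was quantified by HRP-ELISA at 450 nm.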

cyclin E/CDK2 enzyme = biological target: T2, cyclin E/CDK2 enzyme (Homo sapiens, UniProt P24941); experiment: CDK2 ELISA kinase assay (phospho-Rb ser 795 detection); assay type: biochemical
T2 construct: made in house; host or cells: Sf9 insect cells, recombinant baculovirus
Outline: as §1

cyclin B/CDK1 enzyme = biological target: T3, cyclin B/CDK1 enzyme (Homo sapiens, UniProt P06493); experiment: CDK1 ELISA kinase assay (phospho-Rb ser 795 detection); assay type: biochemical
T3 construct: purchased New England BioLabs; host or cells: Sf9 insect cells, recombinant baculovirus
Outline: as §1

BT474 = experiment: Cytotoxicity assay (SRB), BT474; assay type: cell-based
Outline: (§2)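 Plate cells, let them attach overnight, add compound dilutions in RPMI 1640/5% FBS, and incubate 3 days (BT474 6 days). Then fix with TCA, stain with SRB, dissolve the dye in Tris and read at 540 nm.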

HCT-116 = experiment: Cytotoxicity assay (SRB), HCT-116; assay type: cell-based; conditions: HCT116 cells, SRB, read-out: In Vitro Cellular Activity IC50 HCT116
Outline: as §2

LoVo = experiment: Cytotoxicity assay (SRB), LoVo; assay type: cell-based; conditions: LoVo cells, SRB, read-out: In Vitro Cellular Activity IC50 LOVO
Outline: as §2

MCF-7 = experiment: Cytotoxicity assay (SRB), MCF-7; assay type: cell-based; conditions: MCF-7 cells, SRB, read-out: In Vitro Cellular Activity IC50 MCF-7
Outline: as §2

[1] = In Vitro Enzyme Assays, 200 μM ATP, read-out: CDK4 IC50
[2] = In Vitro Enzyme Assays, read-out: CDK2 IC50
[3] = In Vitro Enzyme Assays, read-out: CDK1 IC50
[4] = Homo sapiens, BT-474, 144 h, BT474 cells, 6 days, SRB; read-out: In Vitro Cellular Activity IC50 BT474
[5] = Homo sapiens, HCT-116, 72 h, 3 days
[6] = Homo sapiens, LoVo, 72 h, 3 days
[7] = Homo sapiens, MCF7, 72 h, 3 days
[8] = Homo sapiens, BT-474, 144 h, BT474 cells, SRB, 6 days; read-out: In Vitro Cellular Activity IC50 BT474
[9] = Homo sapiens, HCT-116, 72 h, three days
[10] = Homo sapiens, LoVo, 72 h, three days
[11] = Homo sapiens, MCF7, 72 h, three days
[12] = In Vitro Enzyme Assay, cyclin D1/cdk 4, read-out: CDK4 IC50
[13] = In Vitro Enzyme Assay, cyclin E/CDK2, read-out: CDK2 IC50
[14] = In Vitro Enzyme Assay, cyclin B/CDK1, read-out: CDK1 IC50

T3 sequence (P06493 whole entry): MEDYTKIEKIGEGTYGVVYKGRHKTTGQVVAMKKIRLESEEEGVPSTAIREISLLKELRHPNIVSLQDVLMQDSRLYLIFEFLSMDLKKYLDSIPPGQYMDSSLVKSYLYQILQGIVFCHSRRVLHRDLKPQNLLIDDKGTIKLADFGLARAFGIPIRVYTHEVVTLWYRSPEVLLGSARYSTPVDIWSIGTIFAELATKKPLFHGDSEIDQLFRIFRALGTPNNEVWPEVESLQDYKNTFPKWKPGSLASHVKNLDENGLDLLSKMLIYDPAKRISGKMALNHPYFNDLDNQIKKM
T3 sequence (P14635 whole entry partner): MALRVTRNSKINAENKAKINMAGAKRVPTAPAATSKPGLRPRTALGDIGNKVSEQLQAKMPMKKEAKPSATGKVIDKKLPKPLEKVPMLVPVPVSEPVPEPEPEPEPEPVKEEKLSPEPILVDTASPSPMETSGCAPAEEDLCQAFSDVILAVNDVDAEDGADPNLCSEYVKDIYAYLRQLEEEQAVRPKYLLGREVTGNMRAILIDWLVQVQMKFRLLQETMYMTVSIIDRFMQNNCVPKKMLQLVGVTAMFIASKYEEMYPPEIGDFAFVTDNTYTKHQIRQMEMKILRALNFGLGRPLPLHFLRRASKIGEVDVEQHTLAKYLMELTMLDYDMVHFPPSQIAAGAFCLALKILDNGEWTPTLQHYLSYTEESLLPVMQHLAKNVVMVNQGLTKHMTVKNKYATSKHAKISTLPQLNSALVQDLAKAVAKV
T1 sequence (P11802 whole entry, species assumed): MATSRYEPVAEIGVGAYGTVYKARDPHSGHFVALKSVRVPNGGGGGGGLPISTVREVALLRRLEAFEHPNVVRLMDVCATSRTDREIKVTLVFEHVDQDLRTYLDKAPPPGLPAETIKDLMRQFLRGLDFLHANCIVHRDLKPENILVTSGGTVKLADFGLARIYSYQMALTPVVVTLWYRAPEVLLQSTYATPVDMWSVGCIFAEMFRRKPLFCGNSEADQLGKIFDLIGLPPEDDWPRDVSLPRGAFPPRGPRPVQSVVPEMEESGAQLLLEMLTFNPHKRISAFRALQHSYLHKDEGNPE
T1 sequence (P24385 whole entry partner, species assumed): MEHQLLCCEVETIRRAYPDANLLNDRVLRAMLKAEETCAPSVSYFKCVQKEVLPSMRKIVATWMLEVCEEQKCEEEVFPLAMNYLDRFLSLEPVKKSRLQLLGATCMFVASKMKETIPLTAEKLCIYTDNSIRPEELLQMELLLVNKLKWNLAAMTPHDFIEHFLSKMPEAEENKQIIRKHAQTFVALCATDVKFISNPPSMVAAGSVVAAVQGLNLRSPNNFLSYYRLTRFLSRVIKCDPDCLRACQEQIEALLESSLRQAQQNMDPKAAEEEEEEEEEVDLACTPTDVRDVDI

Row | SMILES | IC50 (cyclin D1/cdk 4 enzyme; [1]) [µM] | IC50 (cyclin E/CDK2 enzyme; [2]) [µM] | IC50 (cyclin B/CDK1 enzyme; [3]) [µM] | IC50 (BT474; [4]) [µM] | IC50 (HCT-116; [5]) [µM] | IC50 (LoVo; [6]) [µM] | IC50 (MCF-7; [7]) [µM] | IC50 (cyclin D1/cdk 4 enzyme; [12]) [µM] | IC50 (cyclin E/CDK2 enzyme; [13]) [µM] | IC50 (cyclin B/CDK1 enzyme; [14]) [µM] | other results
1 | O=C1NC(=O)c2ccc(-c3cccs3)cc2/C1=C/Nc1ccc(CN2CCC[C@H]2CO)cc1 (stereo in doubt) [Example 438, 4-{[4-(2-Hydroxymethyl-pyrrolidin-1-ylmethyl)-phenylamino]-methylene}-6-thiophen-2-yl-4H-isoquinoline-1,3-dione] | 0.04 | > 50 | > 50 | 2.2 | 1.6 | 1.6 | 1.8 | – | – | – | –
2 | C[C@@H]1CN(c2ccc(N/C=C3\C(=O)NC(=O)c4ccc(-c5ccsc5)cc43)cc2)C[C@H](C)N1 [Example 206, (4Z)-4-({[4-(3,5-Dimethylpiperazin-1-yl)phenyl]amino}methylene)-6-thien-3-ylisoquinoline-1,3(2H,4H)-dione] | 0.16 | > 50 | 41.9 | – | – | – | – | – | – | – | IC50 (BT474; [8]): 2.9 µM; IC50 (HCT-116; [9]): 1.6 µM; IC50 (LoVo; [10]): 7.4 µM; IC50 (MCF-7; [11]): 3.7 µM
3 | CC(C)(C)c1ccc2c(c1)/C(=C/NCc1ccn(-c3ccoc3)c(=O)c1)C(=O)NC2=O [Example 533, (4Z)-6-tert-Butyl-4-[({[1-(3-furyl)-2-oxo-1,2-dihydropyridin-4-yl]methyl}amino)methylene]isoquinoline-1,3(2H,4H)-dione] | – | – | – | 0.49 | 1.5 | 0.73 | 1.5 | 0.03 | 3.5 | 6.4 | –
4 | O=C1NC(=O)c2ccc(I)cc2/C1=C/NCc1cc(O)ccc1-c1ccco1 [Example 499, 4-[(2-Furan-2-yl-5-hydroxy-benzylamino)-methylene]-6-iodo-4H-isoquinoline-1,3-dione] | – | – | – | 9.8 | 4.8 | 8.4 | 9.1 | 5.4 | 41.5 | > 50 | –
5 | C/C=C/C(=O)Nc1ccc2c(c1)/C(=C/Nc1ccc(N3CCN(C)CC3)cc1)C(=O)NC2=O [Example 384, (2E)-N-[(4Z)-4-({[4-(4-Methylpiperazin-1-yl)phenyl]amino}methylene)-1,3-dioxo-1,2,3,4-tetrahydroisoquinolin-6-yl]but-2-enamide] | > 50 | > 50 | 38.8 | – | – | – | – | – | – | – | IC50 (BT474; [8]): 26 µM; IC50 (HCT-116; [9]): 12 µM; IC50 (LoVo; [10]): 19 µM; IC50 (MCF-7; [11]): 24 µM
6 | CC(=O)Nc1cccc(-c2ccc3c(c2)C(=CNCc2ccc(O)c(O)c2)C(=O)NC3=O)c1 [Example 822, N-(3-{4-[(3,4-Dihydroxy-benzylamino)-methylene]-1,3-dioxo-1,2,3,4-tetrahydro-isoquinolin-6-yl}-phenyl)-acetamide] | – | – | – | 11 | 27.2 | 47.9 | 16.8 | 0.15 | 18.9 | 46.5 | –
7 | CN1CCN(CCN(C)c2ccc(NC=C3C(=O)NC(=O)c4ccc(Br)cc43)cc2)CC1 (stereo in doubt) [Example 261, (4Z)-6-Bromo-4-{[(4-{methyl[2-(4-methylpiperazin-1-yl)ethyl]amino}phenyl)amino]methylene}isoquinoline-1,3(2H,4H)-dione] | 2.6 | > 50 | > 50 | – | – | – | – | – | – | – | IC50 (BT474; [8]): 10 µM; IC50 (HCT-116; [9]): 3 µM; IC50 (LoVo; [10]): 10 µM; IC50 (MCF-7; [11]): 9.2 µM
8 | CN1CCN(c2ccc(N/C=C3\C(=O)NC(=O)c4ccc(-c5ccsc5)cc43)cc2)CC1 [Example 108, (4Z)-4-({[4-(4-Methylpiperazin-1-yl)phenyl]amino}methylene)-6-thien-3-ylisoquinoline-1,3(2H,4H)-dione] | 0.12 | > 50 | > 50 | – | – | – | – | – | – | – | IC50 (BT474; BT474 cells, SRB, 6 days; read-out: In Vitro Cellular Activity IC50 BT474): 2.6 µM; IC50 (HCT-116; three days): 1.5 µM; IC50 (LoVo; three days): 2.2 µM; IC50 (MCF-7; three days): 2.5 µM
9 | CN1CCN(CCCNC=C2C(=O)NC(=O)c3ccc(-n4cccc4)cc32)CC1 [Example 279, 4-{[3-(4-Methyl-piperazin-1-yl)-propylamino]-methylene}-6-pyrrol-1-yl-4H-isoquinoline-1,3-dione] | 0.19 | > 50 | > 50 | – | – | – | – | – | – | – | IC50 (BT474; [8]): 6 µM; IC50 (HCT-116; [9]): 10 µM; IC50 (LoVo; [10]): 11 µM; IC50 (MCF-7; [11]): 5.3 µM
10 | O=C1NC(=O)c2ccc(I)cc2/C1=C/Nc1ccc(C2CCCN2)cc1 (centres unmarked) [Example 462, 6-Iodo-4-[(4-pyrrolidin-2-yl-phenylamino)-methylene]-4H-isoquinoline-1,3-dione] | – | – | – | 4.8 | 2.6 | 3.6 | 3.5 | 0.42 | > 50 | > 50 | –
11 | CN1CCN(c2ccc(N/C=C3\C(=O)NC(=O)c4ccc(-c5ccoc5)cc43)c(F)n2)CC1 [Example 498, (4Z)-4-({[2-Fluoro-6-(4-methylpiperazin-1-yl)pyridin-3-yl]amino}methylene)-6-(3-furyl)isoquinoline-1,3(2H,4H)-dione] | – | – | – | – | – | – | – | 0.21 | 32.4 | 19.3 | IC50 (BT474; BT474 cells, 6 days, SRB; read-out: In Vitro Cellular Activity IC50 BT474): 1 µM; IC50 (HCT-116; 3 days): 1.1 µM; IC50 (LoVo; 3 days): 1.6 µM; IC50 (MCF-7; 3 days): 3.5 µM
12 | CN1CCN(c2ccc(NC=C3C(=O)NC(=O)c4ccc(-c5cc[nH]c5)cc43)cc2)CC1 [Example 673, 4-{[4-(4-Methyl-piperazin-1-yl)-phenylamino]-methylene}-6-(1H-pyrrol-3-yl)-4H-isoquinoline-1,3-dione] | – | – | – | 8.5 | 3 | 5 | 5.8 | 1 | > 50 | > 50 | –
13 | O=C1NC(=O)c2ccc(-c3ccoc3)cc2/C1=C/NCc1ccc(-c2ccccc2)c(O)c1 [Example 494, 6-Furan-3-yl-4-{[(2-hydroxy-biphenyl-4-ylmethyl)-amino]-methylene}-4H-isoquinoline-1,3-dione] | – | – | – | 0.53 | 0.58 | 0.52 | 1 | 0.03 | 18.4 | 42.5 | –
14 | O=C1NC(=O)c2ccc(-c3ccc4[nH]ccc4c3)cc2C1=CNCc1ccc(O)c(O)c1 [Example 646, 4-[(3,4-Dihydroxy-benzylamino)-methylene]-6-(1H-indol-5-yl)-4H-isoquinoline-1,3-dione] | – | – | – | 11.9 | 8.4 | 10.7 | 7.7 | 0.04 | 2.9 | 13.5 | –
15 | COc1ccc(NC=C2C(=O)NCc3cc(-c4ccc[nH]4)ccc32)cc1 [Example 849, 4-[(4-Methoxy-phenylamino)-methylene]-7-(1H-pyrrol-2-yl)-1,4-dihydro-2H-isoquinolin-3-one] | – | – | – | 6.8 | 12.8 | 15.9 | 4.3 | > 50 | 40.6 | > 50 | –
16 | O=C1NC(=O)c2ccc(-c3ccc(F)cc3)cc2C1=CNCc1ccc(O)c(O)c1 [Example 767, 4-[(3,4-Dihydroxy-benzylamino)-methylene]-6-(4-fluoro-phenyl)-4H-isoquinoline-1,3-dione] | – | – | – | 44 | 25.9 | 21.4 | 25.2 | 0.17 | 9 | 15.4 | –
17 | CN1CCC(Oc2ccc(N/C=C3\C(=O)NC(=O)c4ccc(Br)cc43)cc2)C1 (centres unmarked) [Example 276, (4Z)-6-Bromo-4-[({4-[(1-methylpyrrolidin-3-yl)oxy]phenyl}amino)methylene]isoquinoline-1,3(2H,4H)-dione] | 42.5 | > 50 | > 50 | – | – | – | – | – | – | – | IC50 (BT474; [8]): 8.3 µM; IC50 (HCT-116; [9]): 3.9 µM; IC50 (LoVo; [10]): 6.2 µM; IC50 (MCF-7; [11]): 4.4 µM
